Assay results as given in US7119115B2, “Indazole or indole derivatives, and use thereof in human medicine and more particularly in oncology” (Aventis Pharma S.A., priority 2001, dated 2006).

These compounds were tested against T1, Tubulin (Sus scrofa, UniProt P02550+P02554) (assay: Evaluation of the inhibition of tubulin polymerization (turbidimetry at 350 nm)). Conditions: concentration that inhibits the rate of polymerization by 50%; pig brain tubulin 10 μM.
T1 construct: Tubulin is purified from pig brain according to published methods; from tissue; host or cells: pig brain
T1 sequence (P02550 whole entry): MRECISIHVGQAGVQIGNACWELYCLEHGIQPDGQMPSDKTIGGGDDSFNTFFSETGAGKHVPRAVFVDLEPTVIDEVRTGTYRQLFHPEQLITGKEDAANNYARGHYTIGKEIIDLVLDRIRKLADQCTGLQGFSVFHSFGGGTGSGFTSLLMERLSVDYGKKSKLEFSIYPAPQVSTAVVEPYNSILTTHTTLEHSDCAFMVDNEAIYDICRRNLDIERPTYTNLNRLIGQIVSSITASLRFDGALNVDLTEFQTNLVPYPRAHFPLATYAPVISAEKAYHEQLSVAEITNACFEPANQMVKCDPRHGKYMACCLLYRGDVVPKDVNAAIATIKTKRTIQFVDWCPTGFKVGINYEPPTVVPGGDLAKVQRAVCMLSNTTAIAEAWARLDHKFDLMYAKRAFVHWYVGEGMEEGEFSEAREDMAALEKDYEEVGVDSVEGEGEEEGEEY
T1 sequence (P02554 whole entry): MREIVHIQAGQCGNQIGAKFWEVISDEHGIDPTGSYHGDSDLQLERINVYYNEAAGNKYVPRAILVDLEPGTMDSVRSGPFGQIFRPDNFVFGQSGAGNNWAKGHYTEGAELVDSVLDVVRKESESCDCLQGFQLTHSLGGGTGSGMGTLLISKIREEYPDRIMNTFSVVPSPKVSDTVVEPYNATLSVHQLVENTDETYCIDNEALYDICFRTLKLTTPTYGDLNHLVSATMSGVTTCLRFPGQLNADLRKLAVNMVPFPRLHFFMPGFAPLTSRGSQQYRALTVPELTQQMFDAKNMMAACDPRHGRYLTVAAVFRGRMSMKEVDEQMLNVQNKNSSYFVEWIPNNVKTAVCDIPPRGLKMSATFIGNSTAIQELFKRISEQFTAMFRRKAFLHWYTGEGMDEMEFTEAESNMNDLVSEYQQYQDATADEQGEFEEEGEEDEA
Type: biochemical
Method: Briefly, the brains are ground and centrifuged in an extraction buffer. The tubulin contained in the supernatant of the extract undergoes two successive cycles of polymerization at 37° C. and depolymerization at 4° C., before being separated from the MAPs (Microtubule Associated Proteins) by chromatography on a phosphocellulose P11 column (Whatman). […] It is stored in a buffer known as RB/2 30% glycerol, the composition of which is 50 mM MES-NaOH [2-(N-morpholino)ethanesulphonic acid], pH 6.8; 0.25 mM MgCl2; 0.5 mM EGTA; 30% glycerol (v/v), 0.2 mM GTP (guanosine-5′-triphosphate).
The polymerization of tubulin to microtubules is monitored by turbidimetry as follows: the tubulin is adjusted to a concentration of 10 μM (1 mg/ml) in RB/2 30% glycerol buffer to which 1 mM GTP and 6 mM MgCl2 are added. […] The increase in the turbidity of the solution is monitored at 350 nm.
The products are dissolved at 10 mM in DMSO and added at variable concentrations (0.5 to 10 μM) to the tubulin solution before polymerization.

Question: How did the IC50 turn out when `C=CCO/N=C(/c1n[nH]c2c1C=CC(c1ccccc1)(c1ccccc1)C2)C1CC1` [Example 6-6B, cyclopropyl(6,6-diphenyl-6,7-dihydro-1H-indazol-3-yl)methanone O-allyloxime] was run?
Answer: The IC50 was 1.2 µM.

Question: For `N#Cc1n[nH]c2c1C=CC(c1ccccc1)(c1ccccc1)C2` [Example 4, 6,6-Diphenyl-6,7-dihydro-1H-indazole-3-carbonitrile], which IC50 is on record?
Answer: The IC50 was 23 µM.

Question: With `COCCO/N=C(\c1n[nH]c2c1C=CC(c1ccccc1)(c1ccccc1)C2)C1CC1` [Example 6-7A, cyclopropyl(6,6-diphenyl-6,7-dihydro-1H-indazol-3-yl)methanone O-(2-methoxyethyl)oxime] as the compound, how does the IC50 read?
Answer: Its IC50 is 1.8 µM.

Question: For `O=[N+]([O-])c1ccc(CO/N=C(\c2n[nH]c3c2C=CC(c2ccccc2)(c2ccccc2)C3)C2CC2)cc1` [Example 6-9A, cyclopropyl(6,6-diphenyl-6,7-dihydro-1H-indazol-3-yl)methanone O-(4-nitrobenzyl)oxime], which IC50 is on record?
Answer: The IC50 was 1.5 µM.

Question: How did the IC50 turn out when `COC(=O)c1[nH]nc2c1C=CC(c1ccccc1)(c1ccccc1)C2` [Example 2-2, Methyl 6,6-diphenyl-6,7-dihydro-2H-indazole-3-carboxylate] was run?
Answer: Its IC50 is 1.25 µM.

Question: `O=[N+]([O-])c1ccc(CO/N=C(/c2n[nH]c3c2C=CC(c2ccccc2)(c2ccccc2)C3)C2CC2)cc1` [Example 6-9B, cyclopropyl(6,6-diphenyl-6,7-dihydro-1H-indazol-3-yl)methanone O-(4-nitrobenzyl)oxime] was tested. Which IC50 did it give?
Answer: Its IC50 is 2.5 µM.

Question: Which IC50 does the source give for `C1=CC(c2ccccc2)(c2ccccc2)Cc2[nH]nc(/C(=N/OCc3ccccc3)C3CC3)c21` [Example 6-8B, cyclopropyl(6,6-diphenyl-6,7-dihydro-1H-indazol-3-yl)methanone O-benzyloxime] here?
Answer: The IC50 was 10 µM.

Question: With `CCOC(=O)c1n[nH]c2c1C=CC(c1ccccc1)(c1ccccc1)C2C` (stereo not drawn) [Example 13, Ethyl 7-methyl-6,6-diphenyl-6,7-dihydro-1H-indazole-3-carboxylate] as the compound, how does the IC50 read?
Answer: Its IC50 is 1.5 µM.

Question: With `CCOC(=O)c1n[nH]c2c1C=CC(C)(c1ccccc1)C2` (racemic) [Example 9-1, Ethyl 6-(R,S)-6-methyl-6-phenyl-6,7-dihydro-1H-indazole-3-carboxylate] as the compound, how does the IC50 read?
Answer: The IC50 was 18 µM.

Question: `C1=CC(c2ccccc2)(c2ccccc2)Cc2[nH]nc(/C(=N\OCc3ccccc3)C3CC3)c21` [Example 6-8A, cyclopropyl(6,6-diphenyl-6,7-dihydro-1H-indazol-3-yl)methanone O-benzyloxime] was tested. Which IC50 did it give?
Answer: The IC50 was 1.3 µM.

Question: For `FCCO/N=C(\c1n[nH]c2c1C=CC(c1ccccc1)(c1ccccc1)C2)C1CC1` [Example 6-11A, cyclopropyl(6,6-diphenyl-6,7-dihydro-1H-indazol-3-yl)methanone O-(2-fluoroethyl)oxime], which IC50 is on record?
Answer: Its IC50 is 1 µM.

Question: Which IC50 does the source give for `FCCO/N=C(/c1n[nH]c2c1C=CC(c1ccccc1)(c1ccccc1)C2)C1CC1` [Example 6-11B, cyclopropyl(6,6-diphenyl-6,7-dihydro-1H-indazol-3-yl)methanone O-(2-fluoroethyl)oxime] here?
Answer: The IC50 was 1.3 µM.

Question: How did the IC50 turn out when `CCOC(=O)c1n[nH]c2c1C=CC(c1ccc(F)cc1)(c1ccc(F)cc1)C2` [Example 10-6, Ethyl 6,6-bis(4-fluorophenyl)-6,7-dihydro-1H-indazole-3-carboxylate] was run?
Answer: Its IC50 is 1 µM.

Question: How did the IC50 turn out when `O=C(c1n[nH]c2c1C=CC(c1ccccc1)(c1ccccc1)C2)N1CC1` [Example 3-4, Aziridin-1-yl(6,6-diphenyl-6,7-dihydro-1H-indazol-3-yl)methanone] was run?
Answer: The IC50 was 4.5 µM.

Question: How did the IC50 turn out when `CCOC(=O)c1n[nH]c2c1C=CC(C)(c1ccccc1)C2` (single isomer, unassigned) [Example 9-2, ethyl 6-methyl-6-phenyl-6,7-dihydro-1H-indazole-3-carboxylate] was run?
Answer: The IC50 was 15 µM.

Question: `O/N=C(\c1n[nH]c2c1C=CC(c1ccccc1)(c1ccc(F)cc1)C2)C1CC1` (single isomer, unassigned) [Example 10-5E, cyclopropyl[6-(4-fluorophenyl)-6-phenyl-6,7-dihydro-1H-indazol-3-yl]methanone oxime] was tested. Which IC50 did it give?
Answer: Its IC50 is 6 µM.

Question: `CCOC(=O)c1n[nH]c2c1C=CC(c1ccccc1)(c1ccc(F)cc1)C2` (single isomer, unassigned) [Example 10-3C, ethyl 6,6-(4-fluorophenyl)-6-phenyl-6,7-dihydro-1H-indazole-3-carboxylate] was tested. Which IC50 did it give?
Answer: The IC50 was 1.5 µM.

Question: Which IC50 does the source give for `CCOC(=O)c1n[nH]c2c1C=CC(c1ccccc1)(c1ccc(OC)c(OC)c1)C2` (racemic) [Example 10-2, Ethyl 6-(R,S)-6-(3,4-dimethoxyphenyl)-6-phenyl-6,7-dihydro-1H-indazole-3-carboxylate] here?
Answer: The IC50 was 4.5 µM.

Question: For `C1=CC(c2ccccc2)(c2ccccc2)Cc2[nH]nc(-c3ccsc3)c21` [Example 8-4, 6,6-Diphenyl-3-thiophen-3-yl-6,7-dihydro-1H-indazole], which IC50 is on record?
Answer: Its IC50 is 1.2 µM.

Question: With `O/N=C(/c1n[nH]c2c1C=CC(c1ccccc1)(c1ccc(F)cc1)C2)C1CC1` (single isomer, unassigned) [Example 10-5D, cyclopropyl[6-(4-fluorophenyl)-6-phenyl-6,7-dihydro-1H-indazol-3-yl]methanone oxime] as the compound, how does the IC50 read?
Answer: Its IC50 is 1.5 µM.

Question: `C1=CC(c2ccccc2)(c2ccccc2)Cc2[nH]nc(-c3ccccc3)c21` [Example 8-2, 3,6,6-Triphenyl-6,7-dihydro-1H-indazole] was tested. Which IC50 did it give?
Answer: Its IC50 is 1 µM.

Question: `O=C(c1n[nH]c2c1C=CC(c1ccccc1)(c1ccc(F)cc1)C2)C1CC1` (single isomer, unassigned) [Example 10-4B, cyclopropyl[6-(4-fluorophenyl)-6-phenyl-6,7-dihydro-1H-indazol-3-yl]methanone] was tested. Which IC50 did it give?
Answer: Its IC50 is 0.8 µM.

Question: Which IC50 does the source give for `CCOC(=O)c1[nH]cc2c1C=CC(c1ccccc1)(c1ccccc1)C2` [Example 11, Ethyl 5,5-diphenyl-4,5-dihydro-2H-isoindole-1-carboxylate] here?
Answer: Its IC50 is 6.5 µM.

Question: Which IC50 does the source give for `ON=C(c1n[nH]c2c1C=CC(c1ccccc1)(c1ccc(F)cc1)C2)C1CC1` (single isomer, unassigned) [Example 10-5B] here?
Answer: The IC50 was 6 µM.

Question: With `O=C(c1ccccc1)c1n[nH]c2c1C=CC(c1ccccc1)(c1ccccc1)C2` [Example 5-3, (6,6-Diphenyl-6,7-dihydro-1H-indazol-3-yl)phenylmethanone] as the compound, how does the IC50 read?
Answer: The IC50 was 12.5 µM.

Question: Which IC50 does the source give for `O=C(c1cc[nH]c1)c1n[nH]c2c1C=CC(c1ccccc1)(c1ccccc1)C2` [Example 5-4, (6,6-Diphenyl-6,7-dihydro-1H-indazol-3-yl)-(1H-pyrrol-3-yl)methanone] here?
Answer: The IC50 was 7 µM.

Question: `C=CCON=C(c1n[nH]c2c1C=CC(c1ccccc1)(c1ccccc1)C2)C1CCC1` (single isomer, unassigned) [Example 6-5, Cyclobutyl(6,6-diphenyl-6,7-dihydro-1H-indazol-3-yl)methanone O-allyloxime] was tested. Which IC50 did it give?
Answer: The IC50 was 3 µM.

Question: For `COCCO/N=C(/c1n[nH]c2c1C=CC(c1ccccc1)(c1ccccc1)C2)C1CC1` [Example 6-7B, cyclopropyl(6,6-diphenyl-6,7-dihydro-1H-indazol-3-yl)methanone O-(2-methoxyethyl)oxime], which IC50 is on record?
Answer: The IC50 was 6 µM.

Question: Which IC50 does the source give for `ON=C(c1n[nH]c2c1C=CC(c1ccccc1)(c1ccccc1)C2)C1CC1` (single isomer, unassigned) [Example 6-1B, cyclopropyl(6,6-diphenyl-6,7-dihydro-1H-indazol-3-yl)methanone oxime] here?
Answer: The IC50 was 3 µM.

Question: Which IC50 does the source give for `CCOC(=O)c1n[nH]c2c1C=CC(c1ccc(OC)cc1)(c1ccc(OC)cc1)C2` [Example 10-1, Ethyl 6,6-bis(4-methoxyphenyl)-6,7-dihydro-1H-indazole-3-carboxylate] here?
Answer: The IC50 was 15 to 20 µM.

Question: How did the IC50 turn out when `C1=CC(c2ccccc2)(c2ccccc2)Cc2[nH]nc(-c3cccnc3)c21` [Example 8-3, 6,6-Diphenyl-3-pyrid-3-yl-6,7-dihydro-1H-indazole] was run?
Answer: The IC50 was 6 µM.

Question: Which IC50 does the source give for `Cc1ccc(S(=O)(=O)n2nc(N)c3c2CC(c2ccccc2)(c2ccccc2)C=C3)cc1` [Example 7-1, 6,6-Diphenyl-1-(4-toluenesulphonyl)-6,7-dihydro-1H-indazol-3-ylamine] here?
Answer: Its IC50 is 6 µM.

Question: Which IC50 does the source give for `CN(C)CCO/N=C(\c1n[nH]c2c1C=CC(c1ccccc1)(c1ccccc1)C2)C1CC1` [Example 6-10A, cyclopropyl(6,6-diphenyl-6,7-dihydro-1H-indazol-3-yl)methanone O-(2-dimethylaminoethyl)oxime] here?
Answer: Its IC50 is 4.5 µM.

Question: With `O=C(c1n[nH]c2c1C=CC(c1ccccc1)(c1ccc(F)cc1)C2)C1CC1` (single isomer, unassigned) [Example 10-4C, cyclopropyl[6-(4-fluorophenyl)-6-phenyl-6,7-dihydro-1H-indazol-3-yl]methanone] as the compound, how does the IC50 read?
Answer: Its IC50 is 1.5 µM.

Question: With `CC(C)OC(=O)c1[nH]nc2c1C=CC(c1ccccc1)(c1ccccc1)C2` [Example 2-1, Isopropyl 6,6-diphenyl-6,7-dihydro-2H-indazole-3-carboxylate] as the compound, how does the IC50 read?
Answer: Its IC50 is 3.7 µM.

Question: For `CN(C)CCO/N=C(/c1n[nH]c2c1C=CC(c1ccccc1)(c1ccccc1)C2)C1CC1` [Example 6-10B, cyclopropyl(6,6-diphenyl-6,7-dihydro-1H-indazol-3-yl)methanone O-(2-dimethylaminoethyl)oxime], which IC50 is on record?
Answer: Its IC50 is 12 µM.
